# Earlier results, collected in patent US20260284070A1, “Ophthalmic Solution of Brinzolamide” (Micro Labs Limited, priority 2023, published 2026).
# Details: physiological pH (pH 6.0 to 7.5)
structure (smiles),measurement,value
"CCN[C@H]1CN(CCCOC)S(=O)(=O)c2sc(S(N)(=O)=O)cc21 [Brinzolamide, (R)-(+)-4-Ethylamino-2-(3-methoxypropyl)-3,4-dihydro-2H-thieno[3,2-e]-1,2-thiazine-6-sulfonamide-1,1-dioxide]",Solubility,very limited solubility
